# Reference: ChEMBL document CHEMBL6103557, “Novel Pyrrolidinone Urea Compounds as FPR2 Agonists for Treating Atherosclerosis and Heart Failure” (ACS Med Chem Lett, 2024)
# Biological target: T1, N-formyl peptide receptor 2 (Homo sapiens, UniProt P25090)
# T1 sequence (P25090 whole entry): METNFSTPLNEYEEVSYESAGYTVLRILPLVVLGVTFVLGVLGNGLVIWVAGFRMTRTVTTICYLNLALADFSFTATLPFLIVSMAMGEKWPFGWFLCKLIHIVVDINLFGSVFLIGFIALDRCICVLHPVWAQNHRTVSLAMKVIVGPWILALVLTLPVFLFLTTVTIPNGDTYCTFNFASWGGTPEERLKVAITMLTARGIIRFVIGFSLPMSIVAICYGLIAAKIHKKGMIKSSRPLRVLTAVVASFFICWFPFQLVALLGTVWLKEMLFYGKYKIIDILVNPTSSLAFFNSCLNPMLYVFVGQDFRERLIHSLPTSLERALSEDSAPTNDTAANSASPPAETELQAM
# Experiment: Agonist activity at human FPR2 expressed in forskolin/IBMX-treated CHO cells incubated for 30 mins by HTRF HiRange cAMP assay
# Assay type: functional, cell-based
row,SMILES,EC50 [nM]
1,O=C(Nc1ccc(Cl)cc1F)N[C@@H]1C[C@@H](CO)N(c2ccc(N3CCC(C(F)F)C3)c(F)c2F)C1=O (stereo partly specified),0.7
2,O=C(Nc1ccc(Cl)cc1F)N[C@@H]1C[C@@H](CO)N(c2ccc(N3CCC(C(F)(F)F)C3)c(F)c2F)C1=O (stereo partly specified),0.14
3,CC(C)(O)C1CCCN1c1cc(F)c(N2CCC(NC(=O)Nc3ccc(Cl)cc3F)C2=O)c(F)c1 (stereo unspecified),0.51

# The remaining lines, values ahead:
row,EC50 [nM],SMILES
1,0.74,O=C(Nc1ccc(Cl)cc1F)N[C@@H]1CCN(c2ccc(N3CCC(CO)C3)c(F)c2F)C1=O (stereo partly specified)
2,0.1,CN(C)[C@@H]1CCN(c2ccc(N3CC[C@@H](NC(=O)Nc4ccc(C(F)(F)F)cc4F)C3=O)c(F)c2F)C1
3,0.71,CN(C)[C@H]1CN(c2ccc(N3CC[C@@H](NC(=O)Nc4ccc(Cl)cc4F)C3=O)c(F)c2F)C[C@H]1F
